Assay results published in paper PMC4113215 (Biochemical and biophysical research communications, 2014).

Tests used:
[1] = molecular target: T1, mDMGDH (mature rat DMGDH) (Rattus norvegicus, UniProt Q63342); experiment: X-ray crystal structure, […] Å; type: binding; conditions: covalent; histidyl(N3)-(8alpha)FAD at His84; no folate
T1 sequence (Q63342 22-857): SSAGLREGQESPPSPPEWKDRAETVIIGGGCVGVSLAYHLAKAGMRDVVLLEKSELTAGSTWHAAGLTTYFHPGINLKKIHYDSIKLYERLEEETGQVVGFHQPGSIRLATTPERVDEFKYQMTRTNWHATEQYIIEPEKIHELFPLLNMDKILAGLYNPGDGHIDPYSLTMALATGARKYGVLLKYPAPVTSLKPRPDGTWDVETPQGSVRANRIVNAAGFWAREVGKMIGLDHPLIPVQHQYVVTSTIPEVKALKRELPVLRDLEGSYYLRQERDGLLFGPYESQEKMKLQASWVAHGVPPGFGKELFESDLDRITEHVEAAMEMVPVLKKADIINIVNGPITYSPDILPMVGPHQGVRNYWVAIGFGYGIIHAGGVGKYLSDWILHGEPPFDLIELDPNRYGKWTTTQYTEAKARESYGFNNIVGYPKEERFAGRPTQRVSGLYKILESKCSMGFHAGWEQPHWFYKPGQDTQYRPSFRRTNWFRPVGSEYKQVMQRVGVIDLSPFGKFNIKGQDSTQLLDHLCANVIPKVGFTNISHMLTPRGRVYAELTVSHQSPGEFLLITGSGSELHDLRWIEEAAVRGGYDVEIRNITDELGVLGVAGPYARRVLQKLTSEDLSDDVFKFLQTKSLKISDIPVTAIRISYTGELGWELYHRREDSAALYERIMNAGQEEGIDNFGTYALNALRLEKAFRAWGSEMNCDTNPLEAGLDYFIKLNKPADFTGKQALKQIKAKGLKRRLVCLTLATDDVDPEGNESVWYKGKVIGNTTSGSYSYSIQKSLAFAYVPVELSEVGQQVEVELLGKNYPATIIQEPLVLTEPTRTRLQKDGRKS

[2] = molecular target: T2, prDMGDH-var2 (precursor DMGDHvar-2) (Rattus norvegicus, UniProt Q63342); experiment: X-ray crystal structure, […] Å; type: binding; conditions: covalent; histidyl(N3)-(8alpha)FAD at His84; THF also bound
T2 sequence (Q63342 1-857): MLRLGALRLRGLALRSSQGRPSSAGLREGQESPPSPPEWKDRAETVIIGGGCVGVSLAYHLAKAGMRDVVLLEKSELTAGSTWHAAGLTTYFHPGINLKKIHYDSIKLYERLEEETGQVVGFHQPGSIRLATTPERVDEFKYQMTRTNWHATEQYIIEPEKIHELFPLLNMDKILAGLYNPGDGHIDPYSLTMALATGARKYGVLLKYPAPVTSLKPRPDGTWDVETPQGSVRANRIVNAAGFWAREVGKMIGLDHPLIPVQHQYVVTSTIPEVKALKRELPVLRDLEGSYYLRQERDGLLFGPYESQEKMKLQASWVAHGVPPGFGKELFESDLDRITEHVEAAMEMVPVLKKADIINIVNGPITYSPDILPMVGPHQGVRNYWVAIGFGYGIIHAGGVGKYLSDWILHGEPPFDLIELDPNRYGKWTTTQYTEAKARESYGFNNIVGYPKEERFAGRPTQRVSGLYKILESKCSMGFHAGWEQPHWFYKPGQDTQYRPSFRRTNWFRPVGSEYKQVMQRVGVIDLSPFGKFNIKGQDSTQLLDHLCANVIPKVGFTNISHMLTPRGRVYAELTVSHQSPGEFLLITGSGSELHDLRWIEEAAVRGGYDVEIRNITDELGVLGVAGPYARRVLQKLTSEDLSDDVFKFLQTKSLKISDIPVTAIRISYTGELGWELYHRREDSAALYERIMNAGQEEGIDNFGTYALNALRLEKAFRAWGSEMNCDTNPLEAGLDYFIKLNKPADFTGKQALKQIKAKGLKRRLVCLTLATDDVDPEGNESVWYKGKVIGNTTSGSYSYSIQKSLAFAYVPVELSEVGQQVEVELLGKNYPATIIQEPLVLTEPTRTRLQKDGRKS

For `Cc1cc2nc3c(=O)[nH]c(=O)nc-3n(C[C@H](O)[C@H](O)[C@H](O)COP(=O)(O)OP(=O)(O)OC[C@H]3O[C@@H](n4cnc5c(N)ncnc54)[C@H](O)[C@@H]3O)c2cc1C` [FAD], the “X-ray crystal structure, 2.32 Å” value [1] was “N-terminal domain covalently binds cofactor FAD through His84” and the “X-ray crystal structure, 1.85 Å” value [2] was “two covalently bound FAD molecules, two folate molecules”.
